IC50 and tumor volume data for two molecules are collected here from patent publication US20240245721A1, “DOUBLE SIDED CHIMERIC ANTIGEN RECEPTOR (CAR) ENGINEERED CELL MEMBRANE BASED DRUG DELIVERY SYSTEMS” (BOARD OF REGENTS, THE UNIVERSITY OF TEXAS SYSTEM, priority 2021, published 2024).

Read-outs that look alike come from different tables or passages of the source.

For one assay, the system named is A549 cells. Put plainly: In vitro cytotoxicity (MTT) on A549. Format: cell-based. To be noted: Homo sapiens, afatinib: 48 hour exposure, read-out: IC50 (half maximal inhibitory concentration). As to the method:
(§1) A549, MDA-MB-231 and SKOV-3 cells were seeded (5×10^3 cells/well) in 96-well plates and incubated overnight. Free Afatinib, Afatinib loaded PLGA NPs, anti HER-2 PLGA NPs, Jurkat-T-MNPs, and CAR-T-MNPs were added to the seeded cells (n=4). Alternatively, free cisplatin, cisplatin loaded PLGA NPs, Jurkat-T-MNPs, and CAR-T-MNPs were added to the seeded cells (n=4) at a cisplatin concentration of 7 μM (A549) & 3.5 μM (SKOV-3). After incubation for 48 hours, the absorbance at 490 nm was measured using UV-VIS Spectrophotometer (Tecan) after incubating with MTT reagent (Promega) for one hour. Cell viabilities were calculated via normalizing to the control group (cells exposed to complete media, 100% viability).

In another assay the test system is SKOV-3 cells. In words: In vitro cytotoxicity (MTT) on SKOV-3. It is filed as cell-based. To be noted: read-out: IC50 (half maximal inhibitory concentration). As to the method:
as §1

A further assay deals with MDA-MB-231 cells. In words: In vitro cytotoxicity (MTT) on MDA-MB-231. Format: cell-based. To be noted: Homo sapiens; MDA-MB-231, 48 hour exposure. As to the method: as §1
Assay [1] concerns subcutaneous A549 tumor implanted in nude mice. In words: In vivo therapeutic efficiency (tumor delay, survival, weight, H&E histology). To be noted: 2-week post treatment, single IV dose, cisplatin 3 mg/kg. As to the method:
Nude mice (NU/J) aged 5-6 weeks were purchased from Jacksons Laboratory. Briefly, 2×10^6 A549 cells in 200 μL of Matrigel (Corning, NY) were injected subcutaneously in athymic nude mice. Tumor volumes were checked at regular intervals of 3 days and treatment started when the volume reached ˜300 mm3. Tumor volumes were measured using a standard Vernier Calipers. All procedures involving experimental animals were performed in accordance with the protocols approved by the University of Texas at Arlington Institutional Animal Care and Use Committee.
Xenograft tumors as described above were used to evaluate the therapeutic efficiency of CAR-T-MNPs. After the tumor reached ˜300 mm3, the mice were randomly distributed into 4 groups (n=3) for different treatment groups. Prior to treatment, all mice were ear-tagged, the initial tumor volumes were measured by a caliper, and the body weights were recorded. The treatment groups received a single tail-vein IV administration of either of 200 μL of saline (control), free drug, Jurkat-T-MNPs or CAR-T-MNPs. Tumor volume was measured every 2-3 days via a caliper. Tumor volumes were calculated by measuring the tumor perpendicular diameters with a caliper and calculated using the formula V=½×a×b2, where a and b are the longest diameter and its longest perpendicular diameter, respectively. […]

Consider `CN(C)C/C=C/C(=O)Nc1cc2c(Nc3ccc(F)c(Cl)c3)ncnc2cc1O[C@H]1CCOC1` [afatinib, Afatinib], for which the IC50 with A549 cells was about 4.3 µM; in the assay on SKOV-3 cells (Homo sapiens, SK-OV-3, afatinib: 48 hour exposure), about 1400 nM; with MDA-MB-231 cells, about 3.7 µM.

For `N.N.[Cl][Pt][Cl]` [cisplatin, Cisplatin], the IC50 in the assay with SKOV-3 cells (afatinib: 48 hour exposure) came to 4000 nM. Also, in assay [1], the tumor volume result was “increasing trend”.
